biological target: benzodiazepine receptors; assay: not given; conditions: footnote * Nature 294(1981)472; cited from earlier work

In the case of `COC(=O)c1cc2c(cn1)[nH]c1ccccc12` [CO2 Me, H, H, H], the “IC50, displacement of specific binding of 3H flunitrazepam (in vitro), entry footnoted Nature 294(1981)472” value is listed as 1.9 ng/mL.

biological target: benzodiazepine receptors; assay: in vitro displacement of 3H flunitrazepam (or 3H diazepam) from benzodiazepine receptors, rat cerebrum suspension; assay type: binding; conditions: rat cerebral membrane suspension, 3H flunitrazepam 1.0 nM, 0° C., pH 7.1

Going from `CCOC(=O)c1ncc2[nH]c3ccc(C4CCCCC4)cc3c2c1C` to `CCOC(=O)c1ncc2[nH]c3ccc(C4=CCCCCCC4)cc3c2c1C`, the “IC50, displacement of specific binding of 3H flunitrazepam (in vitro)” value rises from 12 ng/mL to 19 ng/mL (1.6-fold).

Going from `CCOC(=O)c1cc2c(cn1)[nH]c1ccc(C(C)C)cc12` to `CCOC(=O)c1ncc2[nH]c3ccc(C4CCCC(=O)C4)cc3c2c1C` (stereo not drawn), the “IC50, displacement of specific binding of 3H flunitrazepam (in vitro)” value falls from 0.9 ng/mL to 0.6 ng/mL (1.5-fold).

Going from “4-methoxymethyl-6-(1- and 2-cyclohexen-4-yl)-β-carboline-3-carboxylic acid ethyl ester” to “6-(1- and 2-cyclohexen-4-yl)-4-methoxymethyl-3-(3-ethyl-1,2,4-oxadiazol-5-yl)-β-carboline”, the “IC50, displacement of specific binding of 3H flunitrazepam (in vitro)” value rises from 0.7 ng/mL to 1.5 ng/mL (2.1-fold).

Going from `CCOC(=O)c1ncc2[nH]c3cccc(Cc4ccccc4)c3c2c1COC` [CO2 Et, CH2 OCH3, CH2C6 H5, H, 5-benzyl-4-methoxymethyl-β-carboline-3-carboxylic acid ethyl ester] to `CCOC(=O)c1ncc2[nH]c3ccc(C(C)(C)C)cc3c2c1C` [CO2 Et, Me, H, C(CH3)3, 6-tert-butyl-4-methyl-β-carboline-3-carboxylic acid ethyl ester], the “IC50, displacement of specific binding of 3H flunitrazepam (in vitro)” value rises from 0.5 ng/mL to 7.5 ng/mL (15-fold).

For `CCOC(=O)c1ncc2[nH]c3ccc(CCc4ccccc4)cc3c2c1C` [CO2 Et, Me, H, CH2CH2C6 H5, 6-phenethyl-4-methyl-β-carboline-3-carboxylic acid ethyl ester], the “IC50, displacement of specific binding of 3H flunitrazepam (in vitro)” value was 14 ng/mL.

test system: benzodiazepine receptor; assay: in vivo reduction of specific binding of 3H flunitrazepam to the benzodiazepine receptor in living brain, mice; design: unit not given beside the values; conditions: normally subcutaneous, 3H flunitrazepam i.v. after 15 minutes, sacrificed after another 20 minutes

Compared with “4-methoxymethyl-6-(1- and 2-cyclohexen-4-yl)-β-carboline-3-carboxylic acid ethyl ester”, “6-(1- and 2-cyclohexen-4-yl)-4-methoxymethyl-3-(3-ethyl-1,2,4-oxadiazol-5-yl)-β-carboline” is higher in “ED50, reduction of specific binding of flunitrazepam to 50% of control (in vivo)” value: 0.5 for the first, 1.9 for the second.

— patent publication US4623649A, “Substituted β-carbolines, and use thereof as medicinal agents” (Schering Aktiengesellschaft, priority 1983, dated 1986)
